What was measured:
MCF-7 cells [1] = test: Inhibition of growth of cultured MCF-7 cells (cell number 48 h after a single dose); type: cell-based, human; conditions: activity vs. 4-HPR standard
Method: MCF-7 cells were maintained in DMEM supplemented as recommended by ATCC. Cells were plated (10,000/well) and dosed 24 h later dosed with the arylretinamide.

MCF-7 cells [2] = test: Induction of apoptosis in MCF-7 cells, TUNEL assay; type: cell-based; conditions: MCF-7 human breast cancer cell line, FIG. 4
Description: When DNA strands are cleaved or nicked by nucleases, a large number of 3′-hydroxyl ends are exposed. In the TUNEL assay (terminal deoxynucleotidyl transferase dUTP nick end labeling), these ends are labeled with UTP using mammalian terminal deoxynucleotidyl transferase (TdT), which covalently adds labeled nucleotides to the 3′-hydroxyl ends of these DNA fragments in a template-independent fashion. The UTP is then detected using specific probes (e.g., you can incorporate BrdUTP and then use a fluorescent anti-BrdU antibody). The assay can be used on cells in situ or the cells can be analyzed by flow cytometry.
The ability of arylretinamides 1, 7, 10, 11, 18, 19, 27, 32, 33, 41, 42, and 44 to induce apoptosis in MCF-7 cells was determined using a TUNEL assay as described in Engeland, M V; Nieland, L J W; Ramackers, F C S; Schutte, B; Reutelingsperger, CPM Cytometry 1998, 31, 1, which is specifically incorporated by reference.

[3] = all at 10^−5 M, 48 hours after a single dose

| SMILES | growth inhibition (MCF-7 cells [1]; [3]) | melting point [°C] | further results |
| --- | --- | --- | --- |
| CC1=C(/C=C/C(C)=C/C=C/C(C)=C/C(=O)Nc2ccc(C(=O)O)c(O)c2)C(C)(C)CCC1 [Compound 26, N-(3′-hydroxy-4′-carboxyphenyl)retinamide] | − |  |  |
| CC1=C(/C=C/C(C)=C/C=C/C(C)=C/C(=O)Nc2ccc(O)cc2)C(C)(C)CCC1 [Compound 41, N-(4′-hydroxyphenyl)retinamide, reference compound] | ++ (++ = >50% the activity of standard) |  |  |
| CC1=C(/C=C/C(C)=C/C=C/C(C)=C/C(=O)Nc2cccc(O)c2C)C(C)(C)CCC1 [Compound 8, N-(3′-hydroxy-2′-methylphenyl)retinamide] | − | 176 to 176.5 |  |
| CC1=C(/C=C/C(C)=C/C=C/C(C)=C/C(=O)Nc2cc(C)c(O)cc2C)C(C)(C)CCC1 [Compound 2, N-(4′-hydroxy-2′,5′-dimethylphenyl)retinamide] | − |  |  |
| CC1=C(/C=C/C(C)=C/C=C/C(C)=C/C(=O)Nc2cc(Cl)c(C)c(Cl)c2O)C(C)(C)CCC1 [Compound 15, N-(3′,5′-dichloro-2′-hydroxy-4′-methylphenyl)retinamide] | − | 140 to 142 |  |
| CC1=C(/C=C/C(C)=C/C=C/C(C)=C/C(=O)Nc2ccc([N+](=O)[O-])cc2O)C(C)(C)CCC1 [Compound 18, N-(2′-hydroxy-4′-nitrophenyl)retinamide] | ++ (++ = >50% the activity of standard) | 152 to 153.5 | inducing apoptosis of cells (MCF-7 cells [2]): effective at inducing apopotosis |
| COc1ccc(NC(=O)/C=C(C)/C=C/C=C(C)/C=C/C2=C(C)CCCC2(C)C)cc1O [Compound 9, N-(3′-hydroxy-4′-methoxyphenyl)retinamide] | − | 119 to 124 |  |
| CC1=C(/C=C/C(C)=C/C=C/C(C)=C/C(=O)Nc2ccc(O)c(Cl)c2)C(C)(C)CCC1 [Compound 11, N-(3′-chloro-4′-hydroxyphenyl)retinamide] | + (+ = <50% the activity of standard) | 168 to 169 | inducing apoptosis of cells (MCF-7 cells [2]): effective at inducing apopotosis |
| CC1=C(/C=C/C(C)=C/C=C/C(C)=C/C(=O)Nc2cccc(CO)c2)C(C)(C)CCC1 [Compound 32, N-(3′ hydroxymethylphenyl)retinamide] | + (+ = <50% the activity of standard) | 118 to 120.5 | inducing apoptosis of cells (MCF-7 cells [2]): perhaps, 32 are effective at inducing apopotosis |
| CC1=C(/C=C/C(C)=C/C=C/C(C)=C/C(=O)Nc2ccc(C)c(O)c2)C(C)(C)CCC1 [Compound 7, N-(3′-hydroxy-4′-methylphenyl)retinamide] | + (+ = <50% the activity of standard) | 172.5 to 175 | inducing apoptosis of cells (MCF-7 cells [2]): effective at inducing apopotosis |
| CC1=C(/C=C/C(C)=C/C=C/C(C)=C/C(=O)Nc2cc(Cl)ccc2O)C(C)(C)CCC1 [Compound 12, N-(5′-chloro-2′-hydroxyphenyl)retinamide] | − | 115 to 118 |  |
| COC(=O)c1cccc(NC(=O)/C=C(C)/C=C/C=C(C)/C=C/C2=C(C)CCCC2(C)C)c1O [Compound 20, N-(2′-hydroxy-3′-carboxymethylphenyl)retinamide] | − |  |  |
| CC1=C(/C=C/C(C)=C/C=C/C(C)=C/C(=O)Nc2cc([N+](=O)[O-])ccc2O)C(C)(C)CCC1 [Compound 19, N-(2′-hydroxy-5′-nitrophenyl)retinamide] | ++ (++ = >50% the activity of standard) | 151.5 to 153 |  |
| CC1=C(/C=C/C(C)=C/C=C/C(C)=C/C(=O)Nc2cc(Br)c(O)c(Br)c2)C(C)(C)CCC1 [Compound 14, N-(3′,5′-dibromo-4′-hydroxyphenyl)retinamide] | − |  |  |
| CC1=C(/C=C/C(C)=C/C=C/C(C)=C/C(=O)Nc2ccc(O)cc2C)C(C)(C)CCC1 [Compound 1, N-(2′-methyl-4′-hydroxyphenyl)retinamide] | − | 141 to 145 | inducing apoptosis of cells (MCF-7 cells [2]): effective at inducing apopotosis |
| CC1=C(/C=C/C(C)=C/C=C/C(C)=C/C(=O)Nc2ccccc2CO)C(C)(C)CCC1 [Compound 31, N-(2′-hydroxymethylphenyl)retinamide] |  | 72 to 74 |  |
| CC1=C(/C=C/C(C)=C/C=C/C(C)=C/C(=O)Nc2ccc(N)cc2)C(C)(C)CCC1 [Compound 33, N-(4′-aminophenyl)retinamide] | + (+ = <50% the activity of standard) |  |  |

| SMILES | growth inhibition (MCF-7 cells [1]; [3]) | melting point [°C] | further results |
| --- | --- | --- | --- |
| CC1=C(/C=C/C(C)=C/C=C/C(C)=C/C(=O)Nc2cc(C(C)(C)C)ccc2O)C(C)(C)CCC1 [Compound 5, N-(2′-hydroxy-5′-tert-butylphenyl)retinamide] | − | 144 to 146.5 |  |
| COC(=O)c1ccc(O)c(NC(=O)/C=C(C)/C=C/C=C(C)/C=C/C2=C(C)CCCC2(C)C)c1 [Compound 29, N-(2′-hydroxy-5′-carboxymethylphenyl)retinamide] | − |  |  |
| CC1=C(/C=C/C(C)=C/C=C/C(C)=C/C(=O)Nc2ccc(O)cc2[N+](=O)[O-])C(C)(C)CCC1 [Compound 16, N-(4′-hydroxy-2′-nitrophenyl)retinamide] | − | 112 to 117 |  |
| CC1=C(/C=C/C(C)=C/C=C/C(C)=C/C(=O)Nc2ccc(C)cc2O)C(C)(C)CCC1 [Compound 3, N-(2′-hydroxy-4′-methylphenyl)retinamide] | − | 146 to 147.5 |  |
| CCS(=O)(=O)c1ccc(NC(=O)/C=C(C)/C=C/C=C(C)/C=C/C2=C(C)CCCC2(C)C)c(O)c1 [Compound 30, N-(4′-ethylsulfonyl-2′-hydroxyphenyl)retinamide] | − | 145 to 147 |  |
| CC(C=CC1=C(C)CCCC1(C)C)=CC=CC(C)=CC(=O)Nc1ccccc1C(=O)O [Compound 44, N-(2′-carboxyphenyl)retinamide, reference compound] | + (+ = <50% the activity of standard) |  |  |
| CC1=C(/C=C/C(C)=C/C=C/C(C)=C/C(=O)Nc2c(C)cccc2O)C(C)(C)CCC1 [Compound 6, N-(2′-hydroxy-6′-methylphenyl)retinamide] | − |  |  |
| CCOc1ccc(NC(=O)/C=C(C)/C=C/C=C(C)/C=C/C2=C(C)CCCC2(C)C)cc1 [Compound 45, N-(4′-ethoxyphenyl)retinamide, reference compound] |  |  | growth inhibition (MCF-7 cells [1]; compound at 7.4 × 10^−6 M): − |
| CC1=C(/C=C/C(C)=C/C=C/C(C)=C/C(=O)Nc2c(O)cccc2C(=O)O)C(C)(C)CCC1 [Compound 24, N-(2′-hydroxy-6′-carboxyphenyl)retinamide] |  |  | growth inhibition (MCF-7 cells [1]; compound at 3.9 × 10^−6 M): − |
| CC1=C(/C=C/C(C)=C/C=C/C(C)=C/C(=O)Nc2cc(C)ccc2O)C(C)(C)CCC1 [Compound 4, N-(2′-hydroxy-5′-methylphenyl)retinamide] | − | 98 to 100 |  |
| CC1=C(/C=C/C(C)=C/C=C/C(C)=C/C(=O)Nc2ccc(C(=O)O)cc2O)C(C)(C)CCC1 [Compound 22, N-(2′-hydroxy-4′-carboxyphenyl)retinamide] | − |  |  |
| CC1=C(/C=C/C(C)=C/C=C/C(C)=C/C(=O)Nc2ccc(O)cc2Cl)C(C)(C)CCC1 [Compound 10, N-(2′-chloro-4′-hydroxyphenyl)retinamide] | − | 131.5 to 132.5 |  |
| CC1=C(/C=C/C(C)=C/C=C/C(C)=C/C(=O)Nc2cccc(C(=O)O)c2O)C(C)(C)CCC1 [Compound 21, N-(2′-hydroxy-3′-carboxyphenyl)retinamide] | − |  |  |
| CC1=C(/C=C/C(C)=C/C=C/C(C)=C/C(=O)Nc2ccc(O)c(C(=O)O)c2)C(C)(C)CCC1 [Compound 28, N-(4′-hydroxy-3′-carboxyphenyl)retinamide] | − |  |  |
| COC(=O)c1cc(NC(=O)/C=C(C)/C=C/C=C(C)/C=C/C2=C(C)CCCC2(C)C)ccc1O [Compound 27, N-(4′-hydroxy-3′-carboxymethylphenyl)retinamide] | + (+ = <50% the activity of standard) |  |  |
| CC1=C(/C=C/C(C)=C/C=C/C(C)=C/C(=O)Nc2cc(Cl)c(O)c(Cl)c2)C(C)(C)CCC1 [Compound 13, N-(3′,5′-dichloro-4′-hydroxyphenyl)retinamide] | − | 139 to 140 |  |
| CC1=C(/C=C/C(C)=C/C=C/C(C)=C/C(=O)Nc2ccc(O)c([N+](=O)[O-])c2)C(C)(C)CCC1 [Compound 17, N-(4′-hydroxy-3′-nitrophenyl)retinamide] | − | 157 to 159.5 |  |

Source: US7550510B2, “Solid phase synthesis of arylretinamides” (Wisconsin Alumni Research Foundation, priority 2001, dated 2009)
